In PMC9964390, “Design, Synthesis and Phenotypic Profiling of Simplified Gedatolisib Analogues” (Pharmaceuticals, 2023):
Values after ≈ are worked out from the molar mass of the structure shown. Read-outs that look alike come from different tables or passages of the source.

Key:
[1] = Microsomal metabolic stability; assay type: in vitro ADME; conditions: for Metabolization Rates: 10 μM; for half-life at 10 μM / recovery at 10 µM: rat
Protocol: To investigate the metabolic stability of LASSBio-2252 (5f), the compound was incubated with rat liver microsomes in the presence and in the absence of the NADPH-generating system. Metabolization rate, half-life (t1/2) and apparent intrinsic clearance (Clapp) were calculated.
The metabolic stability of compound 5f (LASSBio-2252) was studied as previously described, and 1 mg/mL of […] rat microsomes was incubated with compound […] (10 μM) in the presence and in the absence of the cofactor (i.e., NADPH generating system). After mixing and incubation at 37 °C in a shaking water bath for 1 h, 500 µL cold acetonitrile containing the internal standard was added to terminate the reaction at different time intervals (0, 15, 30, 45 and 60 min). After mixing and centrifugation at 10,500× g for 15 min at 4 °C, the supernatant was filtered and then was injected into the HPLC system using a mixture of methanol: water acidified (0.1% formic acid, pH 3.0) (50:50, v/v) as the mobile phase at a flow rate of 1.0 mL/min. After analysing the results, the pharmacokinetic parameters were calculated as microsomal half-life (t1/2) and apparent intrinsic clearance (Clapp).

[2] = system: PI3K activation and phosphorylation in MOLT-4 cell line; assay: Muse PI3K Activation Dual Detection Kit; assay type: cell-based, human; conditions: MOLT-4, concentration 10 times lower than its CC50
Protocol: The methodology evaluates the activation and phosphorylation of PI3K and was performed from the labelling with the Guava Muse Luminex® PI3K Activation Dual Detection Kit (catalog n^o. MCH200103, Luminex) containing the anti-AKT/PKB-PECy5 antibody to measure total PI3K and the anti-phospho-AKT (Ser473)-Alexa Fluor® 555 antibody for measurement of activated PI3K.
Following 48 h of incubation in an incubator at 37 °C with 5% CO2, 1 mL of the cell solution was transferred to an Eppendorf tube, washed with PBS and centrifuged at 300× g for 5 min. The supernatant was discarded, and the pellet formed was resuspended in 500 µL of PBS. The samples were again centrifuged at 300× g for 5 min and the supernatant discarded.
Then the cell solutions were resuspended in 200 µL of assay buffer (Part no. CS202124), followed by the addition of 200 µL of fixation buffer (Part n^o. CS202122), ending up with a total volume of 400 µL per sample. The samples were incubated for 5 min on ice and centrifuged at 300× g for 5 min and the supernatant discarded.
Cells were permeabilized by adding 200 µL of ice-cold permeabilization buffer (Part n^o. CS202125) and then incubated on ice for 5 min and centrifuged at 300× g for 5 min, and the supernatant was discarded. The formed pellets were resuspended in 450 µL of assay buffer and vortexed at medium speed. In total, 90 µL of the solution from each sample was aliquoted into a new tube, and 10 µL of the cocktail solution containing Anti-phospho-Akt (Ser473), Alexa Fluor®555 and Anti-Akt/PKB, Pecy5 was added. The samples were homogenised and incubated for 30 min in the dark at room temperature.
After the incubation step, 100 µL of assay buffer was added per sample and centrifuged at 300× g for 5 min, and the supernatant was discarded. The formed pellets were resuspended in 200 µL of assay buffer and vortexed, and the samples were read in Guava Muse Luminex®. Data from three independent experiments performed in duplicate were analysed in the Prism6 program to determine the percentage of cells expressing activated and inactivated PI3K.

[3] = pH-dependent aqueous solubility (UV spectrophotometry); assay type: physicochemical; conditions: aqueous buffer, thermodynamic from solid, 37 °C
Protocol: A stock solution of the target compound was prepared by dissolving 1 mg in methanol, and the wavelength of greatest absorption of each compound was obtained by scanning between wavelengths from 200 nm to 500 nm. Six dilutions were prepared from the stock solution and the absorbance reading in the UV spectrophotometer (SpectraMax M5, Molecular Devices, USA). The calibration curve with linear regression was created with the values obtained, and the solubility test was measured by correlating the concentration with the absorbance obtained by ultraviolet. Each compound was added in excess at phosphate buffer solution pH 5.8 and 7.4 to obtain a supersaturated solution that was kept under stirring for 4 h at 37 °C and then was filtered through a 0.45 µm filter for reading at the corresponding wavelengths. The solubility was determined through the equation of the straight line obtained by the linear regression of the calibration curve of the compounds [24, 25].

[4] = system: CCRF-CEM (human leukemia cell line); design: method as in Gazi and coworkers [14]; conditions: ref Gazi and coworkers [14]; cited from earlier work
[5] = system: human peripheral blood mononuclear cells (PBMCs); assay: PBMC viability assay (72 h MTT); assay type: cell-based; conditions: highest concentration studied 50 μM
Protocol: Donor blood was collected and EDTA (ethylenediamine tetraacetic acid) was added to the sterile laminar flow in a 1:20 ratio. In a 15 mL falcon tube, 4.5 mL of Ficoll gradient was added, and then 9 mL of blood was added over the gradient in a 1:2 ratio. The tubes were centrifuged for 40 min at a speed of 750× g with an acceleration of 2 and a brake of 0. The ring of mononuclear cells formed was collected and added to a new tube.
Tubes with PBMCs were centrifuged in an incomplete RPMI medium for 10 min at 580× g with an acceleration of 8 and a brake of 9. The supernatant was discarded, and the cells were resuspended in 1 mL of RPMI medium supplemented with 20% […]. PBMCs were added to 96-well plates at a concentration of 1 × 10^5 cells per well. […]
After incubation, each well received 20 µL of MTT (5 mg/mL), followed by incubation for 4 h in the CO2 oven and centrifugation for 12 min at 1200× g. The supernatant from each well was taken, and 100 µL of isopropyl alcohol was added to solubilize the formazan crystals. The absorbance of the plates was measured at 570 nm in the Flex Station equipment.

[6] = rat liver microsomes, NADPH-generating system absent
[7] = rat liver microsomes, NADPH-generating system present

Row | SMILES | Elimination Rate Constant (k) [1, 6] | Metabolization Rates [1, 6] | Elimination Rate Constant (k) [1, 7] | Metabolization Rates [1, 7] | half-life at 10 μM ([1]; liver microsomes) | recovery at 10 µM ([1]; liver microsomes, NADPH-generating system absent) | recovery at 10 µM ([1]; liver microsomes, NADPH-generating system present) | half-life at 10 μM [1, 6] | half-life at 10 μM [1, 7] | reduction of PI3K-mediated phosphorylation [2] | solubility at 4 h ([3]; phosphate buffer pH 5.8 (duodenum), read-out: Solubility pH 5.8) | solubility at 4 h ([3]; phosphate buffer pH 7.4 (plasma), read-out: Solubility pH 7.4) | CC50 [4] | Emax (reduction of viability of PBMCs) [5]
1 | c1ccc(N2CCN(c3nc(N4CCCNCC4)nc(N4CCOCC4)n3)CC2)cc1 [5f, 4-(4-(1,4-Diazepan-1-yl)-6-(4-phenylpiperazin-1-yl)-1,3,5-triazin-2-yl)morpholine] | 0.0017 | 9.09% | 0.0015 | 2.90% | > 6 h | 100% | 101% | 6.79 h | 7.7 h | 79% | 39.3 µM (≈ 16.7 µg/mL) | 42.4 µM (≈ 18 µg/mL) |  | 
2 | CN(C)C1CCN(C(=O)c2ccc(NC(=O)Nc3ccc(-c4nc(N5CCOCC5)nc(N5CCOCC5)n4)cc3)cc2)CC1 [Gedatolisib, gedatolisib] |  |  |  |  |  |  |  |  |  |  |  |  | 23 nM | 33%
